For test [1], the system named is MCF7. Description: Proliferation Assay (crystal violet). It counts as cell-based, human. How it is done: Cultivated human tumor cells (as indicated) were flattened out at a density of 5000 cells/measuring point in a 96-well multititer plate in 200 μl of the corresponding growth medium. After 24 hours, the cells of one plate (zero-point plate) were colored with crystal violet (see below), while the medium of the other plates was replaced by fresh culture medium (200 μl), to which the test substances were added in various concentrations (0 μm, as well as in the range of 0.01-30 μm; the final concentration of the solvent dimethyl sulfoxide was 0.5%). The cells were incubated for 4 days in the presence of test substances. The cell proliferation was determined by coloring the cells with crystal violet: the cells were fixed by adding 20 μl/measuring point of a 11% glutaric aldehyde solution for 15 minutes at room temperature. After three washing cycles of the fixed cells with water, the plates were dried at room temperature. The cells were colored by adding 100 μl/measuring point of a 0.1% crystal violet solution (pH was set at 3 by adding acetic acid). After three washing cycles of the colored cells with water, the plates were dried at room temperature. The dye was dissolved by adding 100 μl/measuring point of a 10% acetic acid solution. The extinction was determined by photometry at a wavelength of 595 nm. The change of cell growth, in percent, was calculated by standardization of the measured values to the extinction values of the zero-point plate (=0%) and the extinction of the untreated (0 μm) cells (=100%).

Test [2] deals with T1, CDK2/CycE (Homo sapiens, UniProt P24941).
T1 construct: GST; purchased Proquinase Company, Freiburg; host or cells: baculovirus-infected insect cells (Sf9)
Description: CDK2/CycE Kinase Assay. It counts as biochemical. The protocol: Recombinant CDK2- and CycE-GST-fusion proteins, purified from baculovirus-infected insect cells (Sf9), were purchased by the Proquinase Company, Freiburg. Histone IIIS, which was used as a kinase substrate, was purchased by the Sigma Company.
The reaction was stopped by adding EDTA solution (250 mmol, pH 8.0, 14 μl/measuring point).
From each reaction batch, 10 μl was applied to P30 filter strips (Wallac Company), and non-incorporated ^33P-ATP was removed by subjecting the filter strips to three washing cycles for 10 minutes each in 0.5% phosphoric acid. After the filter strips were dried for one hour at 70° C., the filter strips were covered with scintillator strips (MeltiLex™ A, Wallac Company) and baked for one hour at 90° C. The amount of incorporated ^33P (substrate phosphorylation) was determined by scintillation measurement in a gamma-radiation measuring device (Wallac).

[3] abbreviates: Homo sapiens, MCF7, MCF-7 cells, comparison with known reference compounds, read-out: MCF-7 IC50.
Where [4] appears, read: read-out: Inhibition IC50 CDK2/CycE.
The mark [5] stands for this setting: Homo sapiens, MCF7, 96 h, MCF7 cells, 4 days incubation, read-out: Proliferation IC50 MCF7.

Data on 28 molecules can be found in US7288547B2, “CDK-inhibitory 2-heteroaryl-pyrimidines, their production and use as pharmaceutical agents” (Schering AG, priority 2002, dated 2007).

Like-named read-outs stand apart in the source and are kept apart here.

As to `O=C1Cc2c([nH]c3ccc([N+](=O)[O-])cc23)-c2ccccc2N1` [Alsterpaullone, reference compound], the IC50 in test [1] (setting [3]) was found to be 1200 nM.

`C[C@H](CO)Nc1nc(Nc2ccc(S(N)(=O)=O)nc2)ncc1Br` [Example 1.7]: the IC50 in test [2] (setting [4]) was 6 nM.

As for `CC(C)[C@H](CO)Nc1nc(Nc2cc(S(N)(=O)=O)sc2Cl)ncc1Br` [Example 1.8], the IC50 in test [2] (setting [4]) came out at 87 nM; in test [1] (setting [5]) it was 3000 nM.

Regarding `CC(C)[C@H](CO)Nc1nc(Nc2csc(S(N)(=O)=O)c2)ncc1Br` [Example 1.9], the IC50 in test [2] (setting [4]) came out at 50 nM.

Consider `CC(C)[C@H](CO)Nc1nc(Nc2ccc(S(N)(=O)=O)nc2)ncc1Br` [Example 1.11], for which the figures for the IC50 in test [2] (setting [4]) and in test [1] (setting [5]) were 40 nM and 1200 nM, respectively.

With `CC(O)C(C)Nc1nc(Nc2ccc(S(N)(=O)=O)nc2)ncc1Br` (centres unmarked) [Example 1.12], the IC50 was determined as 22 nM in test [2] (setting [4]) and 240 nM in test [1] (setting [5]).

Take `C[C@@H](O)[C@@H](C)Nc1nc(Nc2ccc(S(N)(=O)=O)nc2)ncc1Br` [Example 1.13]: the IC50 in test [2] (setting [4]) was 8 nM; in test [1] (MCF7 cells, 4 days incubation, read-out: Proliferation IC50 MCF7), less than 100 nM.

For the molecule `CC(=O)C(C)Nc1nc(Nc2ccc(S(N)(=O)=O)nc2)ncc1Br` (centres unmarked) [Example 1.14], the IC50 in test [2] (setting [4]) was 17 nM; in test [1] (setting [5]), 870 nM.

Turning to `CC[C@@H](CO)Nc1nc(Nc2ccc(S(N)(=O)=O)nc2)ncc1Br` [Example 1.15], the IC50 came out at 13 nM in test [2] (setting [4]) and 2000 nM in test [1] (setting [5]).

As to `COC[C@H](C)Nc1nc(Nc2ccc(S(N)(=O)=O)nc2)ncc1Br` [Example 1.16], the IC50 in test [2] (setting [4]) is 36 nM; in test [1] (setting [5]) it was 2000 nM.

In the case of `CC[C@H](CO)Nc1nc(Nc2ccc(S(N)(=O)=O)nc2)ncc1Br` [Example 1.17], the results for the IC50 in test [2] (setting [4]) and in test [1] (setting [5]) were 7 nM and 500 nM, respectively.

For `NS(=O)(=O)c1ccc(Nc2ncc(Br)c(NCC3CC3)n2)cn1` [Example 1.19], in test [2] (setting [4]), the IC50 amounted to 12 nM.

With `C[C@H](CO)Nc1nc(Nc2ccc(S(=O)(=O)NCCO)nc2)ncc1Br` [Example 1.20], the figures for the IC50 in test [2] (setting [4]) and in test [1] (setting [5]) were 13 nM and 1900 nM, respectively.

With `NS(=O)(=O)c1ccc(Nc2ncc(Br)c(SCCCCO)n2)cn1` [Example 1.21], the results for the IC50 in test [2] (setting [4]) and in test [1] (setting [5]) were 30 nM and 5300 nM, respectively.

Turning to `CC(CO)N(C)c1nc(Nc2ccc(S(N)(=O)=O)nc2)ncc1Br` (centres unmarked) [Example 3.3], the results for the IC50 in test [2] (setting [4]) and in test [1] (setting [5]) were 36 nM and 620 nM, respectively.

Regarding `CC(Nc1nc(Nc2ccc(S(N)(=O)=O)nc2)ncc1Br)C(C)(C)O` (centres unmarked) [Example 3.4], the results for the IC50 in test [2] (setting [4]) and in test [1] (setting [5]) were 58 nM and 840 nM, respectively.

Take `C[C@H](O)[C@H](C)Nc1nc(Nc2ccc(S(N)(=O)=O)nc2)ncc1Br` [Example 3.5]: the values for the IC50 in test [2] (setting [4]) and in test [1] (setting [5]) were less than 10 nM and 880 nM, respectively.

Consider `C[C@@H](O)[C@@H](C)Nc1nc(Nc2ccc(S(N)(=O)=O)nc2)ncc1Br` [Example 3.6], for which the IC50 in test [2] (setting [4]) was less than 10 nM; in test [1] (setting [5]), 100 nM.

`NS(=O)(=O)c1ccc(Nc2ncc(Br)c(NC3CCCCC3)n2)cn1` [Example 3.12]: the IC50 in test [2] (setting [4]) came out at 20 nM; in test [1] (setting [5]), 790 nM.

As to `CC1CCCCC1Nc1nc(Nc2ccc(S(N)(=O)=O)nc2)ncc1Br` (centres unmarked) [Example 3.13], the IC50 in test [2] (setting [4]) was 16 nM; in test [1] (setting [5]), 300 nM.

Consider `CC(CO)Sc1nc(Nc2ccc(S(N)(=O)=O)nc2)ncc1Br` (centres unmarked) [Example 4.1], for which the values for the IC50 in test [2] (setting [4]) and in test [1] (setting [5]) were less than 10 nM and 610 nM, respectively.

For the molecule `CCC(CO)Sc1nc(Nc2ccc(S(N)(=O)=O)nc2)ncc1Br` (centres unmarked) [Example 4.2], the IC50 in test [2] (setting [4]) is less than 10 nM; in test [1] (setting [5]), 260 nM.

`CC(O)C(C)Sc1nc(Nc2ccc(S(N)(=O)=O)nc2)ncc1Br` (centres unmarked) [Example 4.3]: the IC50 in test [2] (setting [4]) was 34 nM; in test [1] (setting [5]), 230 nM.

`CCC(Sc1nc(Nc2ccc(S(N)(=O)=O)nc2)ncc1Br)C(C)O` (centres unmarked) [Example 4.6, 5-[5-bromo-4-(1-ethyl-2-hydroxy-propylsulfanyl)-pyrimidin-2-ylamino]-pyridine-2-sulfonic acid amide]: the IC50 in test [2] (setting [4]) was found to be 74 nM; in test [1] (setting [5]) it was 630 nM.

`CC(Nc1nc(Nc2ccc(S(N)(=O)=O)nc2)ncc1Br)C(C)NC1CC1` (centres unmarked) [Example 6.0, 5-[5-bromo-4-(2-cyclopropylamino-1-methyl-propylamino)-pyrimidin-2-ylamino]-pyridine-2-sulfonic acid amide]: the IC50 in test [2] (setting [4]) was 25 nM; in test [1] (setting [5]) it was 2300 nM.

As for `O=C1Cc2c([nH]c3ccc(Br)cc23)-c2ccccc2N1` [Kenpaullone, reference compound], the IC50 in test [1] (setting [3]) worked out at 6000 nM.

With `Cn1cnc2c(NCc3ccccc3)nc(NCCO)nc21` [Olomoucine, reference compound], the IC50 in test [1] (setting [3]) is 30000 nM.

For the molecule `CC(C)[C@H](CO)Nc1nc(Nc2cccc(Cl)c2)c2ncn(C(C)C)c2n1` [Purvalanol A, reference compound], the IC50 worked out at 10 nM in test [2] (comparison with known reference compounds, read-out: CDK2/CycE IC50) and 2000 nM in test [1] (setting [3]).
